How the values were obtained:
[1] = target: T1, recombinant human ALK5 (TGF-βR1) protein (Homo sapiens, UniProt P36897); assay: Biochemical ALK5 (TGF-βR1) assay to measure pKi (LANCE Ultra ULight kinase assay); settings: apparent pKi, converted from pIC50 by Cheng-Prusoff
T1 construct: purchased Life Technologies PR9075A
T1 sequence (P36897 34-503): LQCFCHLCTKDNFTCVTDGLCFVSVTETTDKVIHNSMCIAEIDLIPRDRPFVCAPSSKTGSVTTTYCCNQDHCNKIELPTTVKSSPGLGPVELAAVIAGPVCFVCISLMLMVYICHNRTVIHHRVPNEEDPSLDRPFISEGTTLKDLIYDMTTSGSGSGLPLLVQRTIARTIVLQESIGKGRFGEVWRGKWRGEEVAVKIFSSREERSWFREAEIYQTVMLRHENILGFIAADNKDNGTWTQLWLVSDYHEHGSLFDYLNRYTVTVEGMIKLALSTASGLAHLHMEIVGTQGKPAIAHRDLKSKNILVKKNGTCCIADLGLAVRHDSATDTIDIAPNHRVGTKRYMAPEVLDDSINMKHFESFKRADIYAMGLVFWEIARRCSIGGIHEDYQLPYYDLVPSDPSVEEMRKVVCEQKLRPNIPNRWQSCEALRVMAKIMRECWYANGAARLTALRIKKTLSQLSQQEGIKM
Procedure, shortened: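 Europium TR-FRET kinase assay: the enzyme is exposed to compound for 60 min at room temperature, and reaction with ATP runs 60 min at 37 °C. Percent inhibition relative to DMSO and SD-208 controls gives pIC50, which is converted to pKi.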

[2] = test system: TGF-β-stimulated SMAD3 phosphorylation in BEAS-2B cells; assay: Cellular ALK5 potency assay, inhibition of TGF-β stimulated pSMAD3 formation in BEAS-2B cells; assay type: cell-based; settings: Homo sapiens, pSMAD3, TGF-β 10 ng/mL, read-out: BEAS2B pIC50 (converted)
Procedure, shortened: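 Cells were seeded overnight, rinsed into HEPES/BSA-supplemented HBSS, and dosed with serially diluted compound for 1 h at 37 °C, 5% CO2. TGF-β stimulation (10 ng/mL final) followed for 30 min, then lysis and AlphaLISA pSMAD3 measurement; potency reported as pIC50.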

Compound | Ki [1] [nM] | IC50 [2] [nM]
Cc1cccc(-c2nccc(Nc3ccnc(Nc4ccc(CN5C[C@@H](C)N[C@@H](C)C5)cc4)n3)n2)n1 [Compound 240, N2-[4-[[(3R,5S)-3,5-dimethylpiperazin-1-yl]methyl]phenyl]-N4-[2-(6 methyl-2-pyridyl)pyrimidin-4-yl]pyrimidine-2,4-diamine] | 0.0398 to 0.316 | 25.1 to 158
CCOC(=O)CC1CNCCN1c1ccc(Nc2nccc(Nc3ccnc(-c4cccc(C)n4)n3)n2)cc1 (stereo not shown) [Compound 241, ethyl 2-[1-[4-[[4-[[2-(6-methyl-2-pyridyl)pyrimidin-4-yl]amino]pyrimidin-2-yl]amino]phenyl]piperazin-2-yl]acetate] | 0.0398 to 0.316 | 25.1 to 158
Cc1cccc(-c2nccc(Nc3ccnc(Nc4ccc(CN5CCOCC5)c(F)c4)n3)n2)n1 [Compound 242, N2-[3-fluoro-4-(morpholinomethyl)phenyl]-N4-[2-(6-methyl-2-pyridyl)pyrimidin-4-yl]pyrimidine-2,4-diamine] | 0.0398 to 0.316 | 25.1 to 158
Cc1cccc(-c2nccc(Nc3ccnc(Nc4ccc(N5CCC(N(C)Cc6ccccn6)CC5)cc4)n3)n2)n1 [Compound 243, N2-[4-[4-[methyl(2-pyridylmethyl)amino]-1-piperidyl]phenyl]-N4-[2-(6-methyl-2-pyridyl)pyrimidin-4-yl]pyrimidine-2,4-diamine] | 0.0398 to 0.316 | 25.1 to 158
Cc1cccc(-c2nccc(Nc3ccnc(Nc4ccc(F)c(CN5CCN(C)CC5)c4)n3)n2)n1 [Compound 244, N2-[4-fluoro-3-[(4-methylpiperazin-1-yl)methyl]phenyl]-N4-[2-(6-methyl-2-pyridyl)pyrimidin-4-yl]pyrimidine-2,4-diamine] | 0.0398 to 0.316 | 25.1 to 158
Cc1cccc(-c2nccc(Nc3ccnc(Nc4cnn(C5CCNC5)c4)n3)n2)n1 (stereo not shown) [Compound 245, N4-[2-(6-methyl-2-pyridyl)pyrimidin-4-yl]-N2-(1-pyrrolidin-3-ylpyrazol-4-yl)pyrimidine-2,4-diamine] | 0.0398 to 0.316 | 200 to 1260
CN(C)C1CCN(c2ccc(Nc3nccc(Nc4ccnc(-c5cc(Cl)c(F)cc5F)n4)n3)cc2)CC1 [Compound 246, N4-[2-(5-chloro-2,4-difluoro-phenyl)pyrimidin-4-yl]-N2-[4-[4-(dimethylamino)-1-piperidyl]phenyl]pyrimidine-2,4-diamine] | 0.0398 to 0.316 | 25.1 to 158
Cc1cccc(-c2nccc(Nc3ccnc(Nc4ccc(C)c(CN5CCNCC5)c4)n3)n2)n1 [Compound 247, N2-[4-methyl-3-(piperazin-1-ylmethyl)phenyl]-N4-[2-(6-methyl-2-pyridyl)pyrimidin-4-yl]pyrimidine-2,4-diamine] | 0.0398 to 0.316 | 25.1 to 158
Cc1cccc(-c2nccc(Nc3ccnc(Nc4ccc(CN5CCC(C(=O)OC6CCN(C)C6)CC5)cc4)n3)n2)n1 (stereo not shown) [Compound 248, (1-methylpyrrolidin-3-yl) 1-[[4-[[4-[[2-(6-methyl-2-pyridyl)pyrimidin-4-yl]amino]pyrimidin-2-yl]amino]phenyl]methyl] piperidine-4-carboxylate] | 0.0398 to 0.316 | 25.1 to 158
Cc1cccc(-c2nccc(Nc3ccnc(Nc4ccc(CN5CCNC(C)(C)C5)cc4)n3)n2)n1 [Compound 249, N2-[4-[(3,3-dimethylpiperazin-1-yl)methyl]phenyl]-N4-[2-(6-methyl-2-pyridyl)pyrimidin-4-yl]pyrimidine-2,4-diamine] | 0.0398 to 0.316 | 25.1 to 158
COCCOc1ccc(Nc2nccc(Nc3ccnc(-c4cccc(C)n4)n3)n2)cc1 [Compound 250, N2-[4-(2-methoxyethoxy)phenyl]-N4-[2-(6-methyl-2-pyridyl)pyrimidin-4-yl]pyrimidine-2,4-diamine] | 0.398 to 3.16 | 25.1 to 158
CNC1CCN(c2ccc(Nc3nccc(Nc4ccnc(-c5cccc(C)n5)n4)n3)cc2)CC1 [Compound 251, N2-[4-[4-(methylamino)-1-piperidyl]phenyl]-N4-[2-(6-methyl-2-pyridyl)pyrimidin-4-yl]pyrimidine-2,4-diamine] | 0.0398 to 0.316 | 200 to 1260
COC(=O)Cc1cc(Nc2nccc(Nc3ccnc(-c4cccc(C)n4)n3)n2)ccc1N1CCNCC1 [Compound 252, methyl 2-[5-[[4-[[2-(6-methyl-2-pyridyl)pyrimidin-4-yl]amino]pyrimidin-2-yl]amino]-2-piperazin-1-yl-phenyl]acetate] | ≤ 0.0316 | 25.1 to 158
Cc1cccc(-c2nccc(Nc3ccnc(Nc4ccc(CCN(C)C)cc4)n3)n2)n1 [Compound 253, N2-[4-[2-(dimethylamino)ethyl]phenyl]-N4-[2-(6-methyl-2-pyridyl)pyrimidin-4-yl]pyrimidine-2,4-diamine] | 0.0398 to 0.316 | 25.1 to 158
COC(=O)[C@@H]1CN(Cc2ccc(Nc3nccc(Nc4ccnc(-c5cccc(C)n5)n4)n3)cc2)CCN1 [Compound 254, methyl (2S)-4-[[4-[[4-[[2-(6-methyl-2-pyridyl)pyrimidin-4-yl]amino]pyrimidin-2-yl]amino]phenyl]methyl] piperazine-2-carboxylate] | 0.0398 to 0.316 | ≤ 20
Cc1ccc(O)cc1-c1nccc(Nc2ccnc(Nc3ccc(N4CCC(N5CCN(C)CC5)CC4)cc3)n2)n1 [Compound 255, 4-methyl-3-(4-((2-((4-(4-(4-methylpiperazin-1-yl)piperidin-1-yl)phenyl)amino)pyrimidin-4-yl)amino)pyrimidin-2-yl)phenol] | 0.398 to 3.16 | 25.1 to 158
Cc1cccc(-c2nccc(Nc3ccnc(Nc4nc(C(=O)OCC5CNC5)cs4)n3)n2)n1 [Compound 256, azetidin-3-ylmethyl 2-[[4-[[2-(6-methyl-2-pyridyl)pyrimidin-4-yl]amino]pyrimidin-2-yl]amino]thiazole-4-carboxylate] | 0.398 to 3.16 | 200 to 1260
Cc1cccc(-c2nccc(Nc3ccnc(Nc4cccc(C(=O)O[C@H]5CCNC5)c4)n3)n2)n1 [Compound 257, [(3S)-pyrrolidin-3-yl] 3-[[4-[[2-(6-methyl-2-pyridyl)pyrimidin-4-yl]amino]pyrimidin-2-yl]amino]benzoate] | 0.398 to 3.16 | 25.1 to 158
Cc1cccc(-c2nccc(Nc3ccnc(Nc4ccc(C(=O)OC5CNC5)s4)n3)n2)n1 [Compound 258, azetidin-3-yl 5-[[4-[[2-(6-methyl-2-pyridyl)pyrimidin-4-yl]amino]pyrimidin-2-yl]amino]thiophene-2-carboxylate] | 0.0398 to 0.316 | 25.1 to 158
Cc1cccc(-c2nccc(Nc3ccnc(Nc4ccc(NCCN)cc4)n3)n2)n1 [Compound 259, N2-[4-(2-aminoethylamino)phenyl]-N4-[2-(6-methyl-2-pyridyl)pyrimidin-4-yl]pyrimidine-2,4-diamine] | 0.0398 to 0.316 | 25.1 to 158
Cc1cccc(-c2nccc(Nc3ccnc(Nc4cccc(C(=O)OC5CNC5)c4)n3)n2)n1 [Compound 260, azetidin-3-yl 3-[[4-[[2-(6-methyl-2-pyridyl)pyrimidin-4-yl]amino]pyrimidin-2-yl]amino]benzoate] | 0.0398 to 0.316 | 25.1 to 158
CC(=O)N1CCN(c2ccc(Nc3nccc(Nc4ccnc(-c5cccc(C)n5)n4)n3)cc2)CC1 [Compound 261, 1-[4-[4-[[4-[[2-(6-methyl-2-pyridyl)pyrimidin-4-yl]amino]pyrimidin-2-yl]amino]phenyl]piperazin-1-yl]ethanone] | ≤ 0.0316 | ≤ 20
Cc1cccc(-c2nccc(Nc3ccnc(Nc4ccc(CN5CC(C)(N(C)C)C5)cc4)n3)n2)n1 [Compound 262, N2-[4-[[3-(dimethylamino)-3-methyl-azetidin-1-yl]methyl]phenyl]-N4-[2-(6-methyl-2-pyridyl)pyrimidin-4-yl]pyrimidine-2,4-diamine] | 0.0398 to 0.316 | 25.1 to 158
Cc1cccc(-c2nccc(Nc3ccnc(Nc4ccc(NCCN5C[C@@H](C)N[C@@H](C)C5)cc4)n3)n2)n1 [Compound 263, N4-[2-(6-methyl-2-pyridyl)pyrimidin-4-yl]-N2-[4-[2-[rac-(3S,5R)-3,5-dimethylpiperazin-1-yl]ethylamino]phenyl] pyrimidine-2,4-diamine] | 0.0398 to 0.316 | 25.1 to 158
Cc1cccc(-c2nccc(Nc3ccnc(Nc4ccc(S(=O)(=O)N5CCN(C(C)(C)C)CC5)cc4)n3)n2)n1 [Compound 264, N2-[4-(4-tert-butylpiperazin-1-yl)sulfonylphenyl]-N4-[2-(6-methyl-2-pyridyl)pyrimidin-4-yl]pyrimidine-2,4-diamine] | 0.0398 to 0.316 | 25.1 to 158
Cc1cccc(-c2nccc(Nc3ccnc(Nc4ccc(NC(=O)C5CCNCC5)c(C)c4)n3)n2)n1 [Compound 265, N-[2-methyl-4-[[4-[[2-(6-methyl-2-pyridyl)pyrimidin-4-yl]amino]pyrimidin-2-yl]amino]phenyl]piperidine-4-carboxamide] | 0.0398 to 0.316 | ≤ 20

Source: patent US20230399312A1, “SUBSTITUTED PYRIMIDINES AND METHODS OF USE” (THERAVANCE BIOPHARMA R&D IP, LLC, priority 2020, published 2023)
